Assay results from US10000474B2, “Histone deacetylase inhibitors and uses thereof” (MUSC FOUNDATION FOR RESEARCH DEVELOPMENT, priority 2014, dated 2018).
Counter-ions that a name gives are not always drawn.

How the values were obtained:
Format in all cases: biochemical
Conditions in all cases: test concentration not given; average of triplicate
[1] = target: T1, Recombinant human HDAC2 (Homo sapiens, UniProt Q92769); test: HDAC inhibitory assay, HDAC2 (Boc-Lys(Ac)-AMC substrate)
T1 construct: purchased BPS Biosciences
T1 sequence (Q92769 whole entry): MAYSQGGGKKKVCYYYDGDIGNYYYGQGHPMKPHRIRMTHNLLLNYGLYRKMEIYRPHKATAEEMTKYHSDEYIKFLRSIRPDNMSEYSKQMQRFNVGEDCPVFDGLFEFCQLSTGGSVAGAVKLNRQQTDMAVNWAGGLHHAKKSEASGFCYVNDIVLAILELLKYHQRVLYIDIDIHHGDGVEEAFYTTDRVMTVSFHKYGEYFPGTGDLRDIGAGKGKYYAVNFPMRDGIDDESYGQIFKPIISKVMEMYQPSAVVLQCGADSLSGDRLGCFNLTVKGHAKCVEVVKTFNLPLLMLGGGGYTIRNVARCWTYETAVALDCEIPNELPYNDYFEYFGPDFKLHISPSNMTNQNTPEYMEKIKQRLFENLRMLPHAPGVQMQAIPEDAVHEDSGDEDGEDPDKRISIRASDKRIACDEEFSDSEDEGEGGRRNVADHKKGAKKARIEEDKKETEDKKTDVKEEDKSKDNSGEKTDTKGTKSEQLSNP
Description: (§1) The compounds of Examples 1-12 and 14-16 were evaluated for their ability to act as inhibitors of human HDAC. The compound of Example 13 was not tested. Recombinant human HDAC1, HDAC2, HDAC3/NcoR2, HDAC5, HDAC6, HDAC8, HDAC9, HDAC10 and HDAC11 were purchased from BPS Biosciences. Recombinant human HDAC4 and HDAC7 were purchased from Millipore. The substrate Boc-Lys(Ac)-AMC and Boc-Lys(Tfa)-AMC were purchased from Bachem. The substrate Ac-RHK(Ac)K(Ac)-AMC was purchased from Enzo Life Sciences. Due to the different specific activities of each isoform, different amount of enzyme was used in each isoform screening assay. In these assays, trichostatin A (TSA), suberanilohydroxamic acid and diphenylacetohydroxamic acid (DPAHA) were employed as positive controls. All determinations were carried out in triplicate, and reported values were the average of these determinations, which in no case varied by more than 5%.
(§2) Then 25 μl of the Boc-Lys(Ac)-AMC substrate (50 μM final concentration) was added and incubated at 37° C. for 30-60 min, and followed by adding 50 μl of developer (1 mg/ml trypsin and 1 μM TSA). The last step was reading the samples in a SpectraMax M5 plate reader (Molecular Devices) at an excitation wavelength of 360 nm and an emission wavelength of 460 nm.

[2] = target: T2, Recombinant human HDAC4 (Homo sapiens, UniProt P56524); test: HDAC inhibitory assay, HDAC4 (Boc-Lys(Tfa)-AMC substrate)
T2 construct: purchased Millipore
T2 sequence (P56524 whole entry): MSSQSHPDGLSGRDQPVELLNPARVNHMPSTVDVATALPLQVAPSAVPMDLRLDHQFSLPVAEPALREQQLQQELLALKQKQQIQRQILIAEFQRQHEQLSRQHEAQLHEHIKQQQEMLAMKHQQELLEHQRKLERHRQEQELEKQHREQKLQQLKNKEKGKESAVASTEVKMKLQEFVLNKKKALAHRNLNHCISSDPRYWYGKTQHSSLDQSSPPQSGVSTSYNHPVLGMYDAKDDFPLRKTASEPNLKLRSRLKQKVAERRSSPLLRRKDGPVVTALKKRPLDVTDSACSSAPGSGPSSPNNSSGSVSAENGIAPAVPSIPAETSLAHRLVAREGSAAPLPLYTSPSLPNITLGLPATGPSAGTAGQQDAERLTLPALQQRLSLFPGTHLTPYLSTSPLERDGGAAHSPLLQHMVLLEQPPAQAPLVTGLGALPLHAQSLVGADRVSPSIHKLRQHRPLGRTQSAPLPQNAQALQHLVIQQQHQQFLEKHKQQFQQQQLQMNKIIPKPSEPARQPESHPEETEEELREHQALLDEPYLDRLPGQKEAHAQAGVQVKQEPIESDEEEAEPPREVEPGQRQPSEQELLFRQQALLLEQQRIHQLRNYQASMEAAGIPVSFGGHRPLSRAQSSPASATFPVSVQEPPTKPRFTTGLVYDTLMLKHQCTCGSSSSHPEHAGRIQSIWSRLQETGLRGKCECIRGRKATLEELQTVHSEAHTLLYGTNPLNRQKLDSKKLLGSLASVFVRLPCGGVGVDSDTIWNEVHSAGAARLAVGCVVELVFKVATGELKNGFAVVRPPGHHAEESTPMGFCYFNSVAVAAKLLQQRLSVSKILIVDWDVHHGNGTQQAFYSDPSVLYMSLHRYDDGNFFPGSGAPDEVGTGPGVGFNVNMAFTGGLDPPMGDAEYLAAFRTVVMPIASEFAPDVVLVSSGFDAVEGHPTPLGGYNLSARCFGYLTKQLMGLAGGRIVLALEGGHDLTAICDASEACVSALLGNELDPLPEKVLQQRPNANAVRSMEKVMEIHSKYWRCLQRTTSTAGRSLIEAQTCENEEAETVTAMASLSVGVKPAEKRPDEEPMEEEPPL
Description: as §1
For evaluating the inhibition of class IIa HDACs (HDAC4, HDAC5, HDAC7 and HDAC9) and class IV HDAC (HDAC11), 10 μl of test samples were first incubated with 1 ng HDAC4 (specific activity=15400 pmol/min/μg), 5 ng HDAC5 (specific activity=2521 pmol/min/μg), 1 ng HDAC7 (specific activity=26340 pmol/min/μg), 5 ng HDAC9 (specific activity=3000 pmol/min/μg), and 500 ng HDAC11 (specific activity=1.8 pmol/min/μg) respectively. Then 25 μl of the Boc-Lys(Tfa)-AMC substrate (50 μM final concentration) was added and incubated at 37° C. for 30-60 min, and followed by adding 50 μl of developer. The last step was to read the samples in a SpectraMax M5 plate reader (Molecular Devices) at an excitation wavelength of 360 nm and an emission wavelength of 460 nm.

[3] = target: T3, Recombinant human HDAC6 (Homo sapiens, UniProt Q9UBN7); test: HDAC inhibitory assay, HDAC6 (Boc-Lys(Ac)-AMC substrate)
T3 construct: purchased BPS Biosciences
T3 sequence (Q9UBN7 1-1215): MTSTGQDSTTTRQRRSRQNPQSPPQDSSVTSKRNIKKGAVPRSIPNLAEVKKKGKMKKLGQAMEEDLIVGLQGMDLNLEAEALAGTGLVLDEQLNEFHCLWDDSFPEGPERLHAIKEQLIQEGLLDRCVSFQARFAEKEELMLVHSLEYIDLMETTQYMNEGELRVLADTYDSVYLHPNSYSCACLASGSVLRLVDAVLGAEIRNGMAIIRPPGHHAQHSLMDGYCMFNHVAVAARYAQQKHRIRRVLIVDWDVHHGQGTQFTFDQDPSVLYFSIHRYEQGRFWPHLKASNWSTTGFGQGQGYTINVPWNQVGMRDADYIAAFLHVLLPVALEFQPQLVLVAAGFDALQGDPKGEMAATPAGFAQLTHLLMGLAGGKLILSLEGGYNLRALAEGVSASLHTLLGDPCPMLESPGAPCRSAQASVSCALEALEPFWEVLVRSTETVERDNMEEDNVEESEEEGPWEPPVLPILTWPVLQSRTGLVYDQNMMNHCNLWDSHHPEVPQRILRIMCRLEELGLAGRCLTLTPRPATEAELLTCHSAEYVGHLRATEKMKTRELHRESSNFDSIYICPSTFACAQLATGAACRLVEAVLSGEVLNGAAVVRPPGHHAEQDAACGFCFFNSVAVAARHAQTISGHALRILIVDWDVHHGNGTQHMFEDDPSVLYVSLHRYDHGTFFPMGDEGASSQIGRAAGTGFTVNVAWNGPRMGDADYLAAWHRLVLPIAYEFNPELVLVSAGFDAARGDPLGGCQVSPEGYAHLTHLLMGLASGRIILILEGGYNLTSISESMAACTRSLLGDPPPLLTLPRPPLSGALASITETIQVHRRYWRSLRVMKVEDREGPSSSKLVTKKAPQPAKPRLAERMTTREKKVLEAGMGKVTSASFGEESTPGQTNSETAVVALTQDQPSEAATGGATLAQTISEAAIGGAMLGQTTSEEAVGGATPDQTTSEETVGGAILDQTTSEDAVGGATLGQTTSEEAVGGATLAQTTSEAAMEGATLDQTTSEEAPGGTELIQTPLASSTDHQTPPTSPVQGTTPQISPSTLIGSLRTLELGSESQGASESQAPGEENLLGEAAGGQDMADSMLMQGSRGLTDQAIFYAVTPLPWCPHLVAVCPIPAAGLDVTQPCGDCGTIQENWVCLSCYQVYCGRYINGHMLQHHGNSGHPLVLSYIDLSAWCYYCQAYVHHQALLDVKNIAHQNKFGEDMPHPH
Description: as §1, §2

[4] = target: T4, Recombinant human HDAC8 (Homo sapiens, UniProt Q9BY41); test: HDAC inhibitory assay, HDAC8 (Ac-RHK(Ac)K(Ac)-AMC substrate)
T4 construct: purchased BPS Biosciences
T4 sequence (Q9BY41 1-377): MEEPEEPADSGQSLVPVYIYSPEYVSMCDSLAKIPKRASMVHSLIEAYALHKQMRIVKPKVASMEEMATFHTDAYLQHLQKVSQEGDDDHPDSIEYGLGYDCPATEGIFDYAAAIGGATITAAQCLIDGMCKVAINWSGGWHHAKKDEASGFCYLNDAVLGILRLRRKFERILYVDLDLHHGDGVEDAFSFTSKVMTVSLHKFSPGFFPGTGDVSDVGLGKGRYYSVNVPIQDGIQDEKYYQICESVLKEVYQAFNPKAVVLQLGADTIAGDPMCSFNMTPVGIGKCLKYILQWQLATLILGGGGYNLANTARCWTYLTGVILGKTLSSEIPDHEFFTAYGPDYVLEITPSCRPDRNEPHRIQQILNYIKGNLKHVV
Description: as §1
For evaluating the inhibition of HDAC8, 10 μl of test samples were first incubated with 25 ng HDAC8 (specific activity 298 pmol/min/μg). Then 25 μl of the fluorogenic peptide from p53 residues 379-382 (Ac-RHK(Ac)K(Ac)-AMC, 50 μM final concentration) was added and incubated at 37° C. for 30-60 min, and followed by adding 50 μl of developer (1 mg/ml trypsin and 1 uM TSA). The last step was to read the samples in a SpectraMax M5 plate reader (Molecular Devices) at an excitation wavelength of 360 nm and an emission wavelength of 460 nm.

Row | HDAC 2 inhibitory activity [1] [%] | HDAC 4 inhibitory activity [2] [%] | HDAC 6 inhibitory activity [3] [%] | HDAC 8 inhibitory activity [4] [%] | Compound
1 | 29.5 | 17.1 | 50.3 | 0 | O=C(Nc1ccccc1)c1coc(-c2ccccc2O)n1 [Example 1, 2-(2-Hydroxyphenyl)-N-phenyloxazole-4-carboxamide]
2 | 54.1 | 20.7 | 61.6 | 23.3 | O=C(NC(c1ccccc1)c1ccccc1)c1coc(-c2ccccc2O)n1 [Example 2, N-Benzhydryl-2-(2-hydroxyphenyl)oxazole-4-carboxamide]
3 | 34.8 | 8.5 | 49.1 | 16.7 | O=C(NCC(c1ccccc1)c1ccccc1)c1coc(-c2ccccc2O)n1 [Example 3, N-(2,2-Diphenylethyl)-2-(2-hydroxyphenyl)oxazole-4-carboxamide]
4 | 28.7 | 25.8 | 48.1 | 7.2 | O=C(NCCC(c1ccccc1)c1ccccc1)c1coc(-c2ccccc2O)n1 [Example 4, N-(3,3-Diphenylpropyl)-2-(2-hydroxyphenyl)oxazole-4-carboxamide]
5 | 31.9 | 25.5 | 45.6 | 7.2 | O=C(Nc1ccc(-c2ccccc2)cc1)c1coc(-c2ccccc2O)n1 [Example 5, N-([1,1′-Biphenyl]-4-yl)-2-(2-hydroxyphenyl)oxazole-4-carboxamide]
6 | 52.2 | 24.4 | 47.8 | 17.9 | O=C(NCc1ccc(-c2ccccc2)cc1)c1coc(-c2ccccc2O)n1 [Example 6, N-([1,1′-Biphenyl]-4-ylmethyl)-2-(2-hydroxyphenyl)oxazole-4-carboxamide]
7 | 45.2 | 21.3 | 40.4 | 10.6 | O=C(NCc1cccc2ccccc12)c1coc(-c2ccccc2O)n1 [Example 7, 2-(2-Hydroxyphenyl)-N-(naphthalen-1-ylmethyl)oxazole-4-carboxamide]
8 | 36.0 | 7.5 | 30.8 | 7.7 | O=C(NCCc1c[nH]c2ccccc12)c1coc(-c2ccccc2O)n1 [Example 8, N-(2-(1H-Indol-3-yl)ethyl)-2-(2-hydroxyphenyl)oxazole-4-carboxamide]
9 | 25.4 | 17.5 | 46.0 | 9.6 | O=C(NCCCCN1C(=O)c2ccccc2C1=O)c1coc(-c2ccccc2O)n1 [Example 9, N-(4-(1,3-Dioxoisoindolin-2-yl)butyl)-2-(2-hydroxyphenyl)oxazole-4-carboxamide]
10 | 0 | 4.8 | 26.7 | 0 | O=C(NCCCCNC(=O)C(c1ccccc1)c1ccccc1)c1coc(-c2ccccc2O)n1 [Example 10, N-(4-(2,2-Diphenylacetamido)butyl)-2-(2-hydroxyphenyl)oxazole-4-carboxamide]
11 | 1.3 | 55.8 | 50.2 | 0 | O=C(NCCCCNC(=S)NCCC(c1ccccc1)c1ccccc1)c1coc(-c2ccccc2O)n1 [Example 11, N-(4-(3-(3,3-Diphenylpropyl)thioureido)butyl)-2-(2-hydroxyphenyl)oxazole-4-carboxamide]
12 | 19.7 | 6.5 | 28.9 | 14.0 | O=C(NCCCCNCCC(c1ccccc1)c1ccccc1)c1coc(-c2ccccc2O)n1 [Example 12, N-(4-((3,3-Diphenylpropyl)amino)butyl)-2-(2-hydroxyphenyl)oxazole-4-carboxamide hydrochloride]
13 | 56.5 | 24.2 | 60.3 | 20.0 | O=C(O)c1ccc(CNC(=O)c2coc(-c3ccccc3O)n2)cc1 [Example 14, 4-((2-(2-Hydroxyphenyl)oxazole-4-carboxamido)methyl)benzoic acid]
14 | 41.3 | 18.3 | 30.8 | 0 | O=C(Nc1ccccc1)c1ccc(CNC(=O)c2coc(-c3ccccc3O)n2)cc1 [Example 15, 2-(2-Hydroxyphenyl)-N-(4-(phenylcarbamoyl)benzyl)oxazole-4-carboxamide]
15 | 32.0 | 28.1 | 59.9 | 15.0 | O=C(CNC(=O)c1coc(-c2ccccc2O)n1)Nc1ccccc1 [Example 16, 2-(2-Hydroxyphenyl)-N-(2-oxo-2-(phenylamino)ethyl)oxazole-4-carboxamide]
